# Values of other authors in patent US7842677B2, “Synthetic ganglioside derivatives and compositions thereof” (Seneb Biosciences, Inc., priority 2001, dated 2010).
# Test system: murine neuroblastoma cells
substance,measurement,value
ganglioside GM3,growth of neuroblastoma cells (in words),inhibit the growth
